How the values were obtained:
[1] = tested on: ARE-luc2P activity (NRF2); assay: ARE-luc2P reporter assay (NRF2 activity); format: cell-based; settings: Homo sapiens; A549 ARE-luc2P reporter cells
Description: A549 cells were transiently transfected with the plasmid pGL4.37 (Promega, Madison, USA) and selected with 500 µg/ml of hygromycin to obtain a stable cell line harboring the ARE-luc2P reporter. TK-luc2P was cloned into the pLVX-IRE-Puro backbone by replacing its CMV promoter and multiple cloning site with HSV-TK promoter fused to luc2P. The resulting pLVX-TK-luc2P-IRES-Puro plasmid was packaged into lentivirus to transduce A549 cells. Stable cell lines were obtained by selection of transduced cells with 2 µg/ml of puromycin.
A screening library with 65,790 small molecules (Life Chemicals, Niagara-on-the-Lake, Canada) were used in primary screening. The screening procedures were as follows. Seven hundred A549 ARE-luc2P cells in 50 µL of medium were plated per well in 384-well flat clear bottom white polystyrene TC-treated microplates (Corning, Corning, USA) and allowed to attach to plates overnight. […] Twelve hours later, ARE-luc2P activities were measured with Bright-Glo luciferase assay system (Promega, Madison, USA) following vendor instructions. Luminescence was measured on a EnVision multimode plate reader (PerkinElmer, Waltham, USA). Luminescence data on each plate was Z-score normalized using the equation Z=x−μ/σ , where x is the luminescence value of a well, µ is the mean and σ is the standard deviation of all values on one plate. […]

CDK12 = molecular target: T1, CDK12 (Homo sapiens, UniProt Q9NYV4); assay: Western blotting of CDK12 protein level in A549 cells; format: cell-based; settings: A549, after 8 hr of treatment
T1 construct: Western blotting of CDK12 and CCNK from A549 cells treated with HQ461; endogenous in cells; host or cells: A549
T1 sequence (Q9NYV4 whole entry): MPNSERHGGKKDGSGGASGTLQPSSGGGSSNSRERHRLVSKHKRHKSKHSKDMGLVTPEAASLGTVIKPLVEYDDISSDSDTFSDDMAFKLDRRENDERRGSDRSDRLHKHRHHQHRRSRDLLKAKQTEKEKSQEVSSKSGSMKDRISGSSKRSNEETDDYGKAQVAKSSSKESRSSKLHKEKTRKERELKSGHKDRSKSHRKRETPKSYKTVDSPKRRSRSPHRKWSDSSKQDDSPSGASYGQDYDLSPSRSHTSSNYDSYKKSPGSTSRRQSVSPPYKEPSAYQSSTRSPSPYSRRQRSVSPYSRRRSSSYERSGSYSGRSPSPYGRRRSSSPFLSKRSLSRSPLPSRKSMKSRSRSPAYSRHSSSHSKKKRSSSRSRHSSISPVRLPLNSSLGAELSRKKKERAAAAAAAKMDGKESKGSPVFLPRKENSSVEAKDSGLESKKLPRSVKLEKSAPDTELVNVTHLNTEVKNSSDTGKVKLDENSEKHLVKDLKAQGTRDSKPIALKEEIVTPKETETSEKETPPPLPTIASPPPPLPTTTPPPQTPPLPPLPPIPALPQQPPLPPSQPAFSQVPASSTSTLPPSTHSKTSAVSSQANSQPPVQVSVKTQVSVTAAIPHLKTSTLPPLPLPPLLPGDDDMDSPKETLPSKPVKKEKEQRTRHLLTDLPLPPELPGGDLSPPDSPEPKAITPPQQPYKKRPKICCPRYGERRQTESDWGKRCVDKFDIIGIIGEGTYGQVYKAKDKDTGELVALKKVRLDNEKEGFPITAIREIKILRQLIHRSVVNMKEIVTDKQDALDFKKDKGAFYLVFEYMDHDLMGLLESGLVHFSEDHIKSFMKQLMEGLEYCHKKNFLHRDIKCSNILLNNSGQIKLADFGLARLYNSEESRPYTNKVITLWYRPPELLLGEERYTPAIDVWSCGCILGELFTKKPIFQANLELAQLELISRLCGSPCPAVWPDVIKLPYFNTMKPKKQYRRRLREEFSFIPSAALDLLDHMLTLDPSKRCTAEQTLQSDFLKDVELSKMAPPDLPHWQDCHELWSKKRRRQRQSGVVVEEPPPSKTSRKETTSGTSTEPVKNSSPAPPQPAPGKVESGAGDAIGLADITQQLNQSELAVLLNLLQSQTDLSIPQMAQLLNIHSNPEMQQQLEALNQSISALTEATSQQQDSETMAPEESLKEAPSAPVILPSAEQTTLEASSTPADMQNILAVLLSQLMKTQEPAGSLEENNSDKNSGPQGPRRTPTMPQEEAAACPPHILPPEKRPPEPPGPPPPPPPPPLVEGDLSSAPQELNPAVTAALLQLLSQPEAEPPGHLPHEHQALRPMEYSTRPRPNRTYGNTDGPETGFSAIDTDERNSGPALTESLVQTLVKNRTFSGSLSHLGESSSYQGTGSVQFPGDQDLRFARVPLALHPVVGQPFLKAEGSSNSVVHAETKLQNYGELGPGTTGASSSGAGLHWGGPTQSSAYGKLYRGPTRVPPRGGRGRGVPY
T1 sequence (O75909 whole entry partner): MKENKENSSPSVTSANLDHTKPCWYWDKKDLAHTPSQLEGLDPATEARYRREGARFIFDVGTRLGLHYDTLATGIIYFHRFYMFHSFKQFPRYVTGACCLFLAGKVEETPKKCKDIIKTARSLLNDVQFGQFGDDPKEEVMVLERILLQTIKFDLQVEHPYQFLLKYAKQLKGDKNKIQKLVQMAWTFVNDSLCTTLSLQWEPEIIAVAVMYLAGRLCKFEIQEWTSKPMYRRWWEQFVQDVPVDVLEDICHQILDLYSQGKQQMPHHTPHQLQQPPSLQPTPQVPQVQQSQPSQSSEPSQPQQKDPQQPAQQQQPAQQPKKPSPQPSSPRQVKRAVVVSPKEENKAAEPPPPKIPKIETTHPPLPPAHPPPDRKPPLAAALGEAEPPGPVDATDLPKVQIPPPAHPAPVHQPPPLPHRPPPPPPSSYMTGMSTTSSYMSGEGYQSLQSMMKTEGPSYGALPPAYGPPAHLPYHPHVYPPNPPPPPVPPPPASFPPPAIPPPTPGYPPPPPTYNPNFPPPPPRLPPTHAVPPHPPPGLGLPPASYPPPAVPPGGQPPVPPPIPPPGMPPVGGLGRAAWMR
Description: Standard SDS-PAGE and western blotting procedures were used with the following modifications. For preparation of total lysates, cells were rinsed with DPBS to remove residual medium and then lysed in 20 mM HEPES-NaOH, pH 8.0, 10 mM NaCl, 2 mM MgCl2, 1% SDS freshly supplemented with 0.5 units/µL of benzonase and 1x cOmplete, Mini, EDTA-free protease inhibitor cocktail (Roche, Bazel, Switzerland). Protein concentrations of the resulting lysates were quantified by the BCA method. Between 30 to 60 µg of proteins were resolved on SDS-PAGE and transferred to nitrocellulose membranes with a pore size of 0.5 μm. Membranes were blocked in 5% nonfat milk PBST (0.1% v/v Tween-20) for 30 min before blotting with antibodies. […]

FLAG-DDB1/CDK12KD/CCNKΔC = molecular target: T2, FLAG-DDB1/CDK12KD/CCNKΔC (Homo sapiens, UniProt Q9NYV4); assay: FLAG-DDB1:CDK12KD/CCNKΔC pull down assay; format: binding
T2 construct: Human CDK12KD (residues 715–1052); 6xHis (PreScission site) (N, cleaved yes); made in house; host or cells: Sf9 or High Five (CDK12KD/CCNKΔC, co-infected with yeast CAK1); 293F (FLAG-Avi-DDB1)
T2 sequence (Q9NYV4 715-1052, stated change not applied): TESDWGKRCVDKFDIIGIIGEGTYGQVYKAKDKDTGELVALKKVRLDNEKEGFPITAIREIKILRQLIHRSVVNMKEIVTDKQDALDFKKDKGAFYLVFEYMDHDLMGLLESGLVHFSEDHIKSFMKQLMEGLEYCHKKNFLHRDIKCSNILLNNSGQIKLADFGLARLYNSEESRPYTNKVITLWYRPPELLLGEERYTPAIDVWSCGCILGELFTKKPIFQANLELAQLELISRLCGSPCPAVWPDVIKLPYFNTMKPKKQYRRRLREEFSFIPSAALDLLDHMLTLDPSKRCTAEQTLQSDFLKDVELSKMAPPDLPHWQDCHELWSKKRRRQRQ
T2 sequence (O75909 11-267 partner limits assumed): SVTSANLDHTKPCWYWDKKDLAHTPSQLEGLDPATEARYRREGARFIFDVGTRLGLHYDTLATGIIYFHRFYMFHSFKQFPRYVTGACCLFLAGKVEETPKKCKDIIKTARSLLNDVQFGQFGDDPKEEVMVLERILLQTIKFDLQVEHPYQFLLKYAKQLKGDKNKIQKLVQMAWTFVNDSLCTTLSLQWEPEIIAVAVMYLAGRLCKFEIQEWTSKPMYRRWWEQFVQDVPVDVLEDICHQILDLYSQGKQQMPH
T2 sequence (Q16531 whole entry partner, the tested form may be a part): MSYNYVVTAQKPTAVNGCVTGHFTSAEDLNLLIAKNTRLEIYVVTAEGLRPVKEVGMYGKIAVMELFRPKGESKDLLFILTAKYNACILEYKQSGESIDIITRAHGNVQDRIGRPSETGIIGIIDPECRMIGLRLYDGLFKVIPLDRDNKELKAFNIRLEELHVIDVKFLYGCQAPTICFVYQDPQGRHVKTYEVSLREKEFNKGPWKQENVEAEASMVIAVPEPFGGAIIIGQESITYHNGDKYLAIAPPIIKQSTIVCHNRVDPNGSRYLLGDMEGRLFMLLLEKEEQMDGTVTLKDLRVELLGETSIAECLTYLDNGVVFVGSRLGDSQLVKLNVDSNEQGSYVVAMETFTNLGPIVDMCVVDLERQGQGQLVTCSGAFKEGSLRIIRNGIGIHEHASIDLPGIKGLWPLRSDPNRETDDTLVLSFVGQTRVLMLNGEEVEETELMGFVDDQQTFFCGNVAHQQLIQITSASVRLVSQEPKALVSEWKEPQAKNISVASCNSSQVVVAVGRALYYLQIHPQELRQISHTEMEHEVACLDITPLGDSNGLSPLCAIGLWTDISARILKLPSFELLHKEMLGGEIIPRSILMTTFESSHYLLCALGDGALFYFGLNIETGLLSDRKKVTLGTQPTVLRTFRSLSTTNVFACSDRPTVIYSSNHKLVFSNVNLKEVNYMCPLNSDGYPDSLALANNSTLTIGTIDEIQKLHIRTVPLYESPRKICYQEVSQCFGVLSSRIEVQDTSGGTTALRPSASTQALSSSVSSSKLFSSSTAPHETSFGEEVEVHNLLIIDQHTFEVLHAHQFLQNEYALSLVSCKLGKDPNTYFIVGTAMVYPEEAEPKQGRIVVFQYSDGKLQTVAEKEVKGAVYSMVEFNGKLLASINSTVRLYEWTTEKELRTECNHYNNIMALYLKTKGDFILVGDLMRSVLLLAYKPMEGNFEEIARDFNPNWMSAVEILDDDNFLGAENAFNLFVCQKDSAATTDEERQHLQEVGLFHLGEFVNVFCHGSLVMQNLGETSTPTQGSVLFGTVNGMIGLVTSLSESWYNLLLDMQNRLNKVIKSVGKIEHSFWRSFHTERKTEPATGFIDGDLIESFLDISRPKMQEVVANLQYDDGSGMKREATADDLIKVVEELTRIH
Description: FLAG-Avi-DDB1 (18.2 µg) was mixed with CDK12KD/CCNKΔC (10 µg) at 1:1 molar ratio in 500 μL of pulldown assay buffer containing 50 mM HEPES, pH 7.5, 300 mM NaCl, 0.5 mM TCEP. The protein mix was then supplemented with DMSO or HQ461. After 30 min of incubation on ice, the protein-compound mix was incubated with anti-FLAG M2 affinity gel for another 30 min on a rotator at 4 °C. Protein-bound beads were washed three times with the pulldown assay buffer and bound proteins were eluted with 0.2 mg/mL FLAG peptide. Eluted proteins were analyzed by SDS-PAGE followed by coomassie blue staining.

Cc1cccc(Nc2nc(CC(=O)Nc3ncc(C)s3)cs2)n1 [HQ461, 2-(2-((6-methylpyridin-2-yl)amino)thiazol-4-yl)-N-(5-methylthiazol-2-yl)acetamide]
IC50 [1]: 3.6 µM | reduction of CDK12 protein level (CDK12): 50% | complex formation of DDB1 with CDK12KD/CCNKΔC (pulldown) (FLAG-DDB1/CDK12KD/CCNKΔC): near-stoichiometric complex
